# In patent publication US10653672B2, “Myogenesis promotor, muscle atrophy inhibitor, medical composition and TAZ activator” (National University Corporation Tokyo Medical and Dental …, priority 2014, dated 2020):
# “And” between values parts separate entries of the source, which are not always exact repeats. Equal values may be shown once.
# Assays:
# [1] = tested on: binding of MyoD to myogenin promoter; test: Chromatin immunoprecipitation, MyoD on myogenin promoter; type: cell-based, mouse; details: C2C12 cells; 10 μM; differentiation condition 24 hours; protein G sepharose without antibody; listed as IBS008738
# Description: (§1) (1) Chromatin immunoprecipitation of MyoD, TEAD and Pax3 was performed on C2C12 cells that were cultured under differentiation condition for 24 hours in a culture medium added with IBS008738 or DMSO at a concentration of 10 μM. Myogenin, connective tissue growth factor (CTGF) and MyfS were detected by PCR, respectively. The immunoprecipitation with protein G sepharose was used as a control (Mock ChIP). […] The line and the error bar in the figure indicate the average value and the standard error, *p<0.05, ***p<0.001, ns refers to not significant.
# (§2) The Chromatin immunoprecipitation was performed according to the following process. C2C12 cells were cultured to confluence, and then treated with IBS008738 or DMSO at a concentration of 10 μM in a differentiation medium for 24 hours. The cells were crosslinked in 1.42% (v/v) formaldehyde for 15 minutes, and the reaction was quenched by treating with 125 mM glycine for 5 minutes. […] Shearing was analyzed by agarose gel electrophoresis. […] The immunoprecipitated DNA fragments were isolated using Chelex-100 resin and diluted by 1:2.5 for quantitative PCR analysis. Input normalized relative abundance was determined.
# [2] = tested on: binding of Pax3 to Myf5 promoter; test: Chromatin immunoprecipitation, Pax3 on Myf5 promoter; type: cell-based, mouse; details: C2C12 cells; 10 μM; differentiation condition 24 hours; protein G sepharose without antibody; listed as IBS008738
# Description: as §1, §2
compound,measurement,setting,value
Cc1ccc(-n2cnc(/N=C/N3CCOCC3)c2C(=O)c2ccccc2)cc1 [exemplary compound 1],"Input %, myogenin-p, Mock ChIP",[1],0.05% and 0.08%
same,"Input %, Myf5-p, Mock ChIP",[2],0.14% and 0.13% and 0.16%
